Reference: patent US10309967B2, “Methods of diagnosing bipolar disorders and screening for therapeutic compounds” (National University Corporation Chiba University, priority 2015, dated 2019)
Entries after “also recorded” stand apart in the source; their conditions may differ.

Key:
[1] = tested on: Idh3b; assay: Quantitative PCR of Idh3b mRNA in rat prefrontal cortex and hippocampus after Li or VPA; type: in vivo; conditions: normalized to Gapdh; for Idh3b gene expression: relative to control, mean ± SD
Method: (§1) Real-time quantitative RT-PCR analysis was conducted using an ABI7900HT Fast Real-Time PCR System (Applied Biosystems, Foster City, Calif.) in both human and rat samples. TaqMan probes and primers for the seven genes (ACO1, ACO2, IDH1, IDH2, IDH3A, IDH3B, IDH3G) and GAPDH (an internal control) (Table 11) were TAQMAN® Gene Expression Assays products (Applied Biosystems).
(§2) The CSF concentrations of 116 major metabolites from several pathways were measured. […] Male Sprague-Dawley rats (Japan SLC Inc., Shizuoka, Japan) aged 6 weeks old were used in this study. All rats were housed in groups of three per cage in a room maintained at 23° C.±2° C. and 60±10% humidity with a 12/12 hour light/dark cycle (lights on at 7:00 a.m.). The rats were given free access to food and water. Animal care and use were conducted in accordance with the Institutional Guidelines for Animal Care and Use of Otsuka Pharmaceutical Co., Ltd. (Tokushima, Japan). […] The drinking water was replaced twice a week. […] All animals were decapitated on day 30 after CSF sampling, and brain regions (prefrontal cortex, and hippocampus) were dissected rapidly on ice. Metabolomic analyses of rat CSF samples were performed as described herein.
(§3) Prefrontal cortex, and hippocampus were dissected rapidly on ice and stored in RNA later (Applied Biosystems) at 4° C. until used for RNA isolation, cDNA synthesis and polymerase chain reaction (PCR) amplification. The total RNA was extracted using the RNeasy Lipid Tissue Mini Kit (QIAGEN) following the instructions of manufacturer. RNA yield and integrity was assessed using Nanodrop (NanoDrop Technologies). Reverse transcription of total RNA was done using the […] VILO cDNA Synthesis Kit (Invitrogen). In the quantitative PCR, the cDNA was amplified using commercial TaqMan assays (Applied Biosystems) for rat Idh3A (Rn00586270_m1), Idh3B (Rn00504589_g1), Aco1 (Rn00569045_m1), Aco2 (Rn00577876_m1) and Gapdh (Rn01775763_g1) with an ABI 7500 Fast Real-Time PCR system (Applied Biosystems). (Table 17) Reactions were performed in triplicates. All reactions were normalized to Gapdh and presented as relative expression changes compared to control.

[2] = tested on: serum samples from rats; assay: Metabolomics of serum samples from rats chronically treated with Li or VPA; type: in vivo, rat; conditions: chronic (4-weeks) treatment
Method: Data from human samples are presented as mean±standard deviation (SD). Statistical analysis was performed using SAS software version 9.3 (SAS Institute, Cary, N.C.). Analyses of metabolites between control and BD groups were performed using unpaired t-tests and Wilcoxon rank sum tests. A logistic regression model with a stepwise selection method was used for the multivariate analysis and multiple regression analysis (consistent with description in Allen et al., Technometrics. 1974; 16(1):125-127; and Miller et al., Chapman and Hall. 1974, which are incorporated in their entireties by reference herein). […] The Mann-Whitney U test (two-tailed) was used to evaluate changes in expression levels of the ACO and IDH genes between control and BD groups. Rat data are presented as mean±SD. To determine the effects of drug treatment, a one-way ANOVA, followed by the post hoc Dunnett's test was used. P values of less than 0.05 for two-tailed tests were considered statistically significant.
as §2
The serum concentrations of 116 major metabolites from several pathways were measured.

[3] = tested on: Idh3a; assay: Quantitative PCR of Idh3a mRNA in rat prefrontal cortex and hippocampus after Li or VPA; type: in vivo; conditions: normalized to Gapdh
Method: as §1, §2, §3

[4] = tested on: Aco2; assay: Quantitative PCR of Aco2 mRNA in rat prefrontal cortex and hippocampus after Li or VPA; type: in vivo; conditions: normalized to Gapdh; for Aco2 gene expression: relative to control, mean ± SD
Method: as §1, §2, §3

[5] = tested on: Aco1; assay: Quantitative PCR of Aco1 mRNA in rat prefrontal cortex and hippocampus after Li or VPA; type: in vivo; conditions: normalized to Gapdh; for Aco1 gene expression: relative to control, mean ± SD
Method: as §1, §2, §3

[6] = rat prefrontal cortex and hippocampus, chronic (4-weeks) treatment, vs control, sodium salt

For CCCC(CCC)C(=O)[O-].[Na+] [VPA, valproic acid sodium salt], the Idh3b gene expression ([1]; rat hippocampus) was 1.1512 ± 0.1377, the “mRNA levels of Idh3b” value [1, 6] was “did not alter; also recorded: not altered” and the Idh3b gene expression ([1]; rat prefrontal cortex) was 1.2265 ± 0.2128. For the same compound, the “2,3-Diphosphoglyceric acid Mean” value ([2]; rat serum) was 2.1, the “2-Hydroxyglutaric acid Mean” value ([2]; rat serum) was 1.5 and the “2-Oxoglutaric acid Mean” value ([2]; rat serum) was 29. For the same compound, the “2-Oxoisovaleric acid Mean” value ([2]; rat serum) was 15, the “2-Phosphoglyceric acid Mean” value ([2]; rat serum) was 0.6 and the “3-Phosphoglyceric acid Mean” value ([2]; rat serum) was 5.0. For the same compound, the “ADP-ribose Mean” value ([2]; rat serum) was 0.13, the “AMP Mean” value ([2]; rat serum) was 0.4 and the “ATP Mean” value ([2]; rat serum) was 4.2. For the same compound, the “Ala Mean” value ([2]; rat serum) was 757, the “Arg Mean” value ([2]; rat serum) was 206 and the “Argininosuccinic acid Mean” value ([2]; rat serum) was 0.4. The “Asn Mean” value ([2]; rat serum) was 77, the “Asp Mean” value ([2]; rat serum) was 12 and the “Betaine Mean” value ([2]; rat serum) was 287. The “Carnitine Mean” value ([2]; rat serum) was 78, the “Carnosine Mean” value ([2]; rat serum) was 0.2 and the “Choline Mean” value ([2]; rat serum) was 13. For the same compound, the “Citric acid Mean” value ([2]; rat serum) was 151, the “Citrulline Mean” value ([2]; rat serum) was 92 and the “Creatine Mean” value ([2]; rat serum) was 211. The “Creatinine Mean” value ([2]; rat serum) was 25, the “Cystathionine Mean” value ([2]; rat serum) was 1.1 and the “Fructose 1,6-diphosphate Mean” value ([2]; rat serum) was 0.3. The “Fructose 6-phosphate Mean” value ([2]; rat serum) was 0.09, the “Fumaric acid Mean” value ([2]; rat serum) was 2.6 and the “GDP Mean” value ([2]; rat serum) was 0.4. The “GMP Mean” value ([2]; rat serum) was 0.07, the “GTP Mean” value ([2]; rat serum) was 1.9 and the “Gln Mean” value ([2]; rat serum) was 1,001. The “Glu Mean” value ([2]; rat serum) was 173, the “Glucose 6-phosphate Mean” value ([2]; rat serum) was 0.6 and the “Glutathione (GSSG) Mean” value ([2]; rat serum) was 0.4. For the same compound, the “Gly Mean” value ([2]; rat serum) was 488, the “Glycerol 3-phosphate Mean” value ([2]; rat serum) was 3.5 and the “Glycolic acid Mean” value ([2]; rat serum) was 11. For the same compound, the “His Mean” value ([2]; rat serum) was 90, the “Hydroxyproline Mean” value ([2]; rat serum) was 65 and the “IMP Mean” value ([2]; rat serum) was 0.13. The “Ile Mean” value ([2]; rat serum) was 119, the “Isocitric acid Mean” value ([2]; rat serum) was 8.2 and the “Lactic acid Mean” value ([2]; rat serum) was 2,751. For the same compound, the “Leu Mean” value ([2]; rat serum) was 207, the “Lys Mean” value ([2]; rat serum) was 696 and the “Malic acid Mean” value ([2]; rat serum) was 12. The “Met Mean” value ([2]; rat serum) was 53, the “Mevalonic acid Mean” value ([2]; rat serum) was 1.5E−04 and the “N,N-Dimethylglycine Mean” value ([2]; rat serum) was 11. For the same compound, the “N-Carbamoylaspartic acid Mean” value ([2]; rat serum) was 0.02, the “NAD^+ Mean” value ([2]; rat serum) was 1.1 and the “Ornithine Mean” value ([2]; rat serum) was 76. For the same compound, the “Phe Mean” value ([2]; rat serum) was 65, the “Phosphocreatine Mean” value ([2]; rat serum) was 0.9 and the “Pro Mean” value ([2]; rat serum) was 220. The “Putrescine Mean” value ([2]; rat serum) was 0.3, the “Pyruvic acid Mean” value ([2]; rat serum) was 107 and the “Ribose 1-phosphate Mean” value ([2]; rat serum) was 0.4. For the same compound, the “Ribose 5-phosphate Mean” value ([2]; rat serum) was 0.04, the “Ribulose 5-phosphate Mean” value ([2]; rat serum) was 0.2 and the “Sarcosine Mean” value ([2]; rat serum) was 5.5. For the same compound, the “Ser Mean” value ([2]; rat serum) was 319, the “Succinic acid Mean” value ([2]; rat serum) was 10 and the “Thr Mean” value ([2]; rat serum) was 217. For the same compound, the “Trp Mean” value ([2]; rat serum) was 110, the “Tyr Mean” value ([2]; rat serum) was 89 and the “UDP-glucose Mean” value ([2]; rat serum) was 0.6. For the same compound, the “Urea Mean” value ([2]; rat serum) was 5,050, the “Uric acid Mean” value ([2]; rat serum) was 25 and the “Val Mean” value ([2]; rat serum) was 290. For the same compound, the “cAMP Mean” value ([2]; rat serum) was 0.05, the “cGMP Mean” value ([2]; rat serum) was 0.02 and the “cis-Aconitic acid Mean” value ([2]; rat serum) was 3.1. The “β-Ala Mean” value ([2]; rat serum) was 1.9, the “serum levels of N-acetylglutamic acid” value ([2]; rats, vs control) was “not altered” and the “serum levels of arginine” value ([2]; rats, vs control) was “not altered”. The “serum levels of pyruvic acid” value ([2]; rats, vs control) was “not altered”, the “serum levels of serine” value ([2]; rats, vs control) was “not altered” and the “serum levels of β-alanine” value ([2]; rats, vs control) was “not altered”. For the same compound, the “mRNA levels of Idh3a” value [3, 6] was “did not alter; also recorded: not altered”, the Idh3a gene expression ([3]; rat prefrontal cortex, relative to control, mean ± SD) was 1.2546 ± 0.3578 and the Aco2 gene expression ([4]; rat hippocampus) was 1.0358 ± 0.0499. For the same compound, the “mRNA levels of Aco2” value [4, 6] was “did not alter; also recorded: not altered”, the Aco2 gene expression ([4]; rat prefrontal cortex) was 0.9505 ± 0.1596 and the Aco1 gene expression ([5]; rat hippocampus) was 1.0956 ± 0.0520. The “mRNA levels of Aco1” value [5, 6] was “did not alter; also recorded: not altered” and the Aco1 gene expression ([5]; rat prefrontal cortex) was 1.1550 ± 0.1237.
